Experiments:
Type in all cases: cell-based, human
PBMC = assay: ELISpot IFN-γ assay with PBMC of Ad5-PfCA immunized volunteers (Example 1); details: for IFN-γ ELISpot activity of individual 15-mer peptide: threshold 40 SFC/million; for ELISpot activity of 1 month PBMC: v005, PBMC 1 month
Method: In order to assess the pools for their ability to induce T-cell responses, specifically CD 8^+ responses, PBMC, 1 month post immunization were used, from the five volunteers in Table 1, in ELISpot assays. In these studies, IFN-γ activity was measured in response to exposure to the peptide pools. The assays were conducted essentially as described by Wang, et al., Proc. Natl. Acad. Sci. (U.S.A.), 98: 10817-22.
The stimulation of circulating antigen-specific T cell lymphocytes was evaluated by measurement of γ-IFN induction by ELISPOT. The ELISpot assay was conducted using thawed cryopreserved PBMC at 200 K cells per well. Pre-challenge cells were taken at day 21 and day 22 post AdPfCA vaccination. Cells were suspended in […] complete medium and were stimulated with AMA1 peptides suspended in […] of complete medium. Peptide concentrations used in assays was 10 μg/ml of each peptide tested. Cultures were incubated for 36 h at 37° C., 5% CO2. Depending on availability of cells, each PBMC sample was assayed in duplicate, triplicate, or quadruplicate and the number of IFN-γ-secreting cells recognized as spot-forming cells (SFC) was enumerated using an automated ELISpot reader. In duplicate assays, all values were used in analysis. For triplicate or quadruplicate assays, outliers were rejected if any single value contributed more than 50% of the standard deviation of the triplicate (or quadruplicate) and if its value was three-fold greater or less than the average of the remaining two (or three) values. The mean spot forming cells (SFCs) obtained in negative control wells were subtracted from the value of each test well from the same sample. Negative counts generated by this background subtraction were converted to zero. The mean spot number of the test sample was then calculated and expressed as SFC/million PBMCs. Values obtained with pre-vaccinated samples were subtracted from the post-vaccination values.

[1] = test system: CD4+ and CD8+ T cells of PBMC; assay: Intracellular cytokine staining (ICS) of CD4+ and CD8+ T cells; details: for CD8^+ T cell IFN-γ response in ICS: HLA-matched volunteers, FIG. 1 upper panel
Method: ICS was performed on PBMCs with costimulatory antibodies anti-CD28 and […] (obtained from BD Bioscience™, San Jose, Calif.). The peptides were used at the same concentrations as in ELISpot assays. Stimulants were added t cells and incubated at 37° C. with 5% CO2 for 2 hr. Golgi Plug™ (Brefeldin A) (BD Bioscience™, San Jose, Calif.) was added at a final concentration of 0.6 μL/mL and incubated at 37° C. with 5% CO2 overnight. Cells were stained with anti-CD3 (Alexa Fluor 700™), anti-CD4 (PerCP™), and anti-CD8 Pacific Blue™ (obtained from BD Bioscience™, San Jose, Calif.). and 1 μg/mL of live/dead fixable blue dye, incubated and washed. Cells were permeabilized with Cytofix/Cytoperm™ solution (obtained from BD Bioscience™, San Jose, Calif.), incubated and washed. Cells were stained intracellularly with anti-CD3 ([…]), anti-CD4 (PerCP™), and anti-CD8 Pacific Blue™, anti-IFN-γ FITC, anti-TNF PE, and anti-IL2 APC, incubated and washed. Cells were resuspended and the entire available sample was acquired by flowcytometry. The gating strategy included progressively measuring total cells; viable cells only; lymphocytes; T cells; CD4^+ CD8^+ populations; and a specific cell type expressing a specific cytokine. Histograms were used to determine the total production of IFN-γ, IL2, and TNF for the CD4^+ and CD8^+ populations. Boolean gates were used to determine cells producing combinations of cytokines.
In these studies, T cells containing IFN-γ, IL2, or TNFα, were gated into different subsets: IFN-γ+, IL2+, TNFα−; IFN-γ+, IL2-, TNFα+; IFN-γ+, IL2+, TNFα+; or IFN-γ+, IL2−, TNFα− T cells, and stimulated with the predicted epitopes and their parent peptide pool. The frequency of CD8^+ T cells producing total IFN-γ was far greater than CD4^+ T cell responses (FIG. 1, upper panel), which were extremely low.

[2] = test system: CD8+ or CD4+ T-cell depleted PBMC; assay: ELISpot IFN-γ assay after CD8+ or CD4+ T-cell depletion (Example 2, Table 6); details: for CD4^+ depletion, test: CD4+ depleted; for CD8^+ Depletion, test: CD8+ depleted
Method: PBMC population depletion was conducted using anti-human CD4+ and anti-CD8^+ coated Dynabeads™ M-450 (Dynal, Great Neck, N.Y.) following the manufacturer's instructions. Mock depletion was done with Dynabeads coated with Sheep anti-mouse IgG. Flow cytometry confirmed that T-cell subset depletions were >99% in all experiments. The data is presented as the % effect (decrease) in activity after T cell subset depletion. […]
The results of this study, summarized in Table 6, identified other CD8^+ epitopes, associated specific HLA class I genes.

[3] = test system: CD4+ or CD8+ T cell depleted PBMC; assay: ELISpot IFN-γ assay after CD4+ or CD8+ T cell depletion of PBMC (Example 1); parameters: % change of ELISpot activity, CD8 dep vs control: concentration or dose not given beside the values; ELISpot IFN-γ activity, Control dep / ELISpot IFN-γ activity, CD4 dep / ELISpot IFN-γ activity, CD8 dep: unit not given here; details: for ELISpot IFN-γ activity, CD4 dep: CD4+ T cells depleted; for ELISpot IFN-γ activity, CD8 dep: CD8+ T cells depleted; for ELISpot IFN-γ activity, Control dep: mock depletion
Method: PBMC population depletion was conducted using anti-human CD4+ and anti-CD8^+ coated Dynabeads™ M-450 (Dynal, Great Neck, N.Y.) following the manufacturer's instructions. Mock depletion was done with Dynabeads coated with Sheep anti-mouse IgG. Flow cytometry confirmed that T-cell subset depletions were >99% in all experiments. The data is presented as the % effect (decrease) in activity after T cell subset depletion.
Finally, we wanted to confirm that indeed the responses to AMA14e were mediated by CD8^+ T cells. We compared activity to AMA14e in ELISpot depletion assays and ICS CD4^+ or CD8^+ T cell IFN-γ assays with Ap1-12 and recombinant AMA1 protein with v001 and v005 (FIG. 3). CD8^+ T cell depletion reduced ELISpot activity to AMA14e by about 85% in v001 and 95% in v005.

[4] = Vol. 1550-10, 12 wk post challenge
[5] = Vol. 1550-11, 4 wk post challenge

## CEIFNVKPTCLINNS [Ap8-12]
PBMC; Volunteer 005
  IFN-γ ELISpot activity of individual 15-mer peptide: 127 SFC/10^6

## CNKLVFELSASDQPK [Ap7-7]
PBMC; Volunteer 001
  IFN-γ ELISpot activity of individual 15-mer peptide: 77 SFC/10^6

## EDIPHVNEFPAIDLF [Ap7-3]
PBMC; Volunteer 001
  IFN-γ ELISpot activity of individual 15-mer peptide: 139 SFC/10^6

## EMRHFYKDNKYVKNL [Ap4-11]
PBMC; Volunteer 005
  IFN-γ ELISpot activity of individual 15-mer peptide: 65 SFC/10^6
PBMC
  ELISpot activity of 1 month PBMC: 65 sfc/m

## ETQKCEIFNV (listed as Plasmodium falciparum) [Epitope 10]
[1]
  CD8^+ T cell IFN-γ response in ICS: very weak CD8^+ IFN-γ responses
[1]; v008 and v012, any two of IFN-γ, IL-2, TNF-α, FIG. 1 lower panel
  multifunctional CD8^+ T cell responses in ICS: did not appear to induce multifunctional responses

## ETQKCEIFNVKPTCL [Ap8-11]
PBMC; Volunteer 001
  IFN-γ ELISpot activity of individual 15-mer peptide: 48 SFC/10^6
PBMC; Volunteer 005
  IFN-γ ELISpot activity of individual 15-mer peptide: 218 SFC/10^6
PBMC; Volunteer 008
  IFN-γ ELISpot activity of individual 15-mer peptide: 48 SFC/10^6

## FKADRYKSHGKGYNW [Ap8-6]
[2]; [4]
  CD4^+ depletion % change: 26%
  CD8^+ Depletion % change: 100%
  CD4^+ depletion, test: 81 SFC/10^6
  CD8^+ Depletion, test: 0 SFC/10^6
  CD4^+ depletion, control: 109 SFC/10^6
  CD8^+ Depletion, control: 109 SFC/10^6
PBMC; Volunteer 012
  IFN-γ ELISpot activity of individual 15-mer peptide: 143 SFC/10^6

## HPKEYEYPL (listed as Plasmodium falciparum) [Epitope 9]
[1]
  CD8^+ T cell IFN-γ response in ICS: equal or more CD8^+ IFN-γ than the parent peptide pool

## HVNEFPAIDLFECNK [Ap7-4]
PBMC; Volunteer 001
  IFN-γ ELISpot activity of individual 15-mer peptide: 96 SFC/10^6

## INEHREHPKEYEYPL [Ap1-11]
[3]; V002
  % change of ELISpot activity, CD4 dep vs control: −18%
  % change of ELISpot activity, CD8 dep vs control: −94%
  ELISpot IFN-γ activity, CD4 dep: 152
  ELISpot IFN-γ activity, CD8 dep: 11
  ELISpot IFN-γ activity, Control dep: 185
[3]; V005
  % change of ELISpot activity, CD4 dep vs control: −37%
  % change of ELISpot activity, CD8 dep vs control: −100%
  ELISpot IFN-γ activity, CD4 dep: 145
  ELISpot IFN-γ activity, CD8 dep: 0
  ELISpot IFN-γ activity, Control dep: 233
PBMC; Volunteer 002
  IFN-γ ELISpot activity of individual 15-mer peptide: 180 SFC/10^6
PBMC; Volunteer 005
  IFN-γ ELISpot activity of individual 15-mer peptide: 322 SFC/10^6

## KEYEYPLHQEHTYQQ [Ap1-13]
[3]; V001
  % change of ELISpot activity, CD4 dep vs control: +133%
  % change of ELISpot activity, CD8 dep vs control: −76%
  ELISpot IFN-γ activity, CD4 dep: 168
  ELISpot IFN-γ activity, CD8 dep: 17
  ELISpot IFN-γ activity, Control dep: 72
PBMC; Volunteer 001
  IFN-γ ELISpot activity of individual 15-mer peptide: 42 SFC/10^6

## LLSAFEFTYMINFGR [Ap1-3]
[3]; V001
  % change of ELISpot activity, CD4 dep vs control: −32%
  % change of ELISpot activity, CD8 dep vs control: −56%
  ELISpot IFN-γ activity, CD4 dep: 58
  ELISpot IFN-γ activity, CD8 dep: 37
  ELISpot IFN-γ activity, Control dep: 85
PBMC; Volunteer 001
  IFN-γ ELISpot activity of individual 15-mer peptide: 48 SFC/10^6

## LMSPMTLDEMRHFYK [Ap4-9]
[3]; V005
  % change of ELISpot activity, CD4 dep vs control: −32%
  % change of ELISpot activity, CD8 dep vs control: −100%
  ELISpot IFN-γ activity, CD4 dep: 137
  ELISpot IFN-γ activity, CD8 dep: 1
  ELISpot IFN-γ activity, Control dep: 204
PBMC; Volunteer 002
  IFN-γ ELISpot activity of individual 15-mer peptide: 189 SFC/10^6
PBMC; Volunteer 005
  IFN-γ ELISpot activity of individual 15-mer peptide: 395 SFC/10^6

## MTLDEMRHFYKDNKY [Ap4-10]
PBMC; Volunteer 002
  IFN-γ ELISpot activity of individual 15-mer peptide: 82 SFC/10^6
PBMC; Volunteer 005
  IFN-γ ELISpot activity of individual 15-mer peptide: 118 SFC/10^6

## NQYLKDGGFAFPPTE [Ap4-5]
PBMC; Volunteer 005
  IFN-γ ELISpot activity of individual 15-mer peptide: 50 SFC/10^6
PBMC
  ELISpot activity of 1 month PBMC: 50 sfc/m

## NSTCRFFVCK (listed as Plasmodium falciparum)
[2]; [5]
  CD4^+ depletion % change: 26%
  CD8^+ Depletion % change: 100%
  CD4^+ depletion, test: 153 SFC/10^6
  CD8^+ Depletion, test: 0 SFC/10^6
  CD4^+ depletion, control: 207 SFC/10^6
  CD8^+ Depletion, control: 207 SFC/10^6
[2]; primarily attributable to CD8^+ T-cell response
  T-cell response in ELISpot: stimulated a significant T-cell response

## QNSDVYRPINEHREH [Ap1-9]
PBMC; Volunteer 001
  IFN-γ ELISpot activity of individual 15-mer peptide: 48 SFC/10^6

## RYKSHGKGYNWGNYN [Ap8-7]
[2]; [4]
  CD4^+ depletion % change: 26%
  CD8^+ Depletion % change: 99%
  CD4^+ depletion, test: 54 SFC/10^6
  CD8^+ Depletion, test: 1 SFC/10^6
  CD4^+ depletion, control: 72 SFC/10^6
  CD8^+ Depletion, control: 72 SFC/10^6

## TSNNEVVVKEEYKDE [Ap10-13]
[3]; V001
  % change of ELISpot activity, CD4 dep vs control: +148%
  % change of ELISpot activity, CD8 dep vs control: −88%
  ELISpot IFN-γ activity, CD4 dep: 252
  ELISpot IFN-γ activity, CD8 dep: 13
  ELISpot IFN-γ activity, Control dep: 103
[3]; V012
  % change of ELISpot activity, CD4 dep vs control: +14%
  % change of ELISpot activity, CD8 dep vs control: −100%
  ELISpot IFN-γ activity, CD4 dep: 90
  ELISpot IFN-γ activity, CD8 dep: 0
  ELISpot IFN-γ activity, Control dep: 79
PBMC; Volunteer 001
  IFN-γ ELISpot activity of individual 15-mer peptide: 250 SFC/10^6
PBMC; Volunteer 012
  IFN-γ ELISpot activity of individual 15-mer peptide: 233 SFC/10^6

Reference: patent publication US20110117120A1, “Plasmodium falciparum HLA class I restricted T-cell epitopes” (priority 2009, published 2011)
